Data published in publication PMC11477965, “Synthesis and Anti-Liver Fibrosis Research of Aspartic Acid Derivatives” (Molecules, 2024).
Where a SMILES comes first, the peptide text is derived from it.

Assays:
COL1A1 promoter = COL1A1 promoter luciferase reporter inhibition assay in LX-2 cells; assay type: cell-based, human; settings: for inhibition at 500 µM: Homo sapiens, read-out: Inhibitory Rate (%) of COL1A1 promotor; for relative fluorescence unit (RFU) of COL1A1 promotor: mean ± SD, n = 3, Control 124874.7 ± 10750.9;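 on all read-outs here: Anti-fibrotic screen: luciferase reporter driven by the COL1A1 promoter in human hepatic stellate LX-2 cells, compounds applied in complete medium in 96-well plates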
Description: A total of 32 target compounds, the lead compound L-Asp, and the positive control epigallocatechin gallate (EGCG), known for its anti-hepatic fibrotic activity [29], were tested for inhibitory effects on COL1A1 promoter activity at a concentration of 0.5 mM.
The LX-2 cells at 90% confluent were transfected with the plasmid of pGL4.17-COL1A1 promoter using Lipofectamine 2000 (Invitrogen, 11668019, Carlsbad, CA, USA) with Opti-MEM serum-free medium (Gibco, 1930104). After culturing for 6 h, the cells were replaced with a complete medium and seeded in 96-well plates for 24 h. The compound to be tested was prepared using a complete medium and added to the 96-well plate. After 24 h, Bright-Glo Luciferase Assay System (Promega, Madison, WI, USA) was used to detect the activity of COL1A1 promoter and the assaying inhibition rate.

[1] = tested on: IKKβ-NF-κB signaling pathway; experiment: LPS-induced inflammation in LX-2 cells (western blot); assay type: cell-based, human; settings: LPS 1 μg/mL, 24 h, 500 μM bands scanned
Description: Inflammation is crucial in the onset and progression of liver fibrosis, and fibrosis can further exacerbate tissue inflammation. […] To assess the anti-inflammatory effects of Compounds 41 and 8a, LX-2 cells were pre-incubated in serum-free medium for 24 h before LPS stimulation, followed by treatment with different concentrations of the compounds in serum-free medium containing 1 μg/mL LPS for another 24 h. Changes in inflammatory cytokine protein levels were analyzed using western blotting.
The IKKβ-NF-κB signaling pathway has been closely linked to the severity of liver fibrosis, with IKKβ serving as the primary catalytic subunit responsible for NF-κB activation. Therefore, this study investigated the NF-κB pathway by measuring IKKβ kinase activity. […] To evaluate the effects of the target compounds on LPS-induced inflammatory cytokines, four concentrations (50, 100, 200 and 500 μmol/L) were tested, and the results were analyzed by grayscale scanning of western blot bands using ImageJ software (version 1.53t), with normalization to GAPDH protein levels.
After the confluence of LX-2 cells reached 90%, the cells were treated with serum-free medium for 24 h. 2 ng/mL TGFβ1 or 1 μg/mL LPS were used in combination with compounds of different concentrations for 24 h. The samples of cells were lysed in RIPA buffer supplemented with protease inhibitor cocktail (Roche) and separated by SDS-PAGE. After the proteins were transferred to the PVDF membrane, 5% skim milk in TBS-T buffer was used to block them at room temperature for 2 h. Specific primary and secondary antibodies were used to detect the target protein. Finally, the blot was visualized using the Tanon 5200 system (Tanon, Shanghai, China) and the protein expression of GAPDH was used as the internal reference.

| SMILES | melting point | inhibition at 500 µM (COL1A1 promoter; LX-2 cells, 0.5 mM, 24 h) | relative fluorescence unit (RFU) of COL1A1 promotor (COL1A1 promoter; LX-2 cells) | fold decrease in COL1A1 promoter inhibitory activity relative to 45 (COL1A1 promoter; 0.5 mM, versus 45) | Inhibitory Rate (%) of COL1A1 promotor (COL1A1 promoter; LX-2 cells, 0.5 mM, 24 h) | inhibition of inflammatory factors [1] |
| --- | --- | --- | --- | --- | --- | --- |
| Cc1cc(=O)n2c(CC(=O)N[C@@H](CC(=O)O)C(=O)O)csc2n1 [Compound 35, (2-(7-methyl-5-oxo-5H-thiazolo [3,2-a]pyrimidin-3-yl)acetyl)-L-aspartic acid] | 253.1 to 256.8 °C | < 0% | 161478.3 ± 67708.9 RFU |  |  |  |
| N[C@@H](CC(=O)Nc1nccs1)C(=O)O [Compound 4b, N^4-(thiazol-2-yl)-L-asparagine] | 268.9 to 271.2 °C | 31.2 ± 14.3% | 85934.6 ± 17864.6 RFU |  |  |  |
| Cc1cc(=O)n2c(CNC(=O)c3cccc(F)c3F)csc2n1 [Compound 28a, 2,3-difluoro-N-((7-methyl-5-oxo-5H-thiazolo [3,2-a]pyrimidin-3-yl)methyl)benzamide] | 218 to 220.2 °C | 43.9 ± 6.36% | 70040.5 ± 7951.7 RFU |  |  |  |
| N[C@@H](CC(=O)OCc1cc(=O)c(O)co1)C(=O)O [Compound 23a, (S)-2-amino-4-((5-hydroxy-4-oxo-4H-pyran-2-yl)methoxy)-4-oxobutanoic acid] | 156.3 to 158.7 °C | 27.9 ± 1.16% | 90057.5 ± 1452.6 RFU |  |  |  |
| N[C@@H](CC(=O)OCc1ccc([N+](=O)[O-])cc1)C(=O)O [Compound 11c, (S)-2-amino-4-((4-nitrobenzyl)oxy)-4-oxobutanoic acid] | 207.2 to 209.5 °C | < 0% | 158140.3 ± 50740.1 RFU |  |  |  |
| N[C@@H](CC(=O)OCc1cc(=O)n2ccsc2n1)C(=O)O [Compound 37, (S)-2-amino-4-oxo-4-((5-oxo-5H-thiazolo [3,2-a]pyrimidin-7-yl)methoxy)butanoic acid] |  | 8.46 ± 8.16% | 114307.8 ± 10191.8 RFU |  |  |  |
| N[C@@H](CC(=O)O)C(=O)OCc1ccc(F)cc1 [Compound 11e, (S)-3-amino-4-((4-fluorobenzyl)oxy)-4-oxobutanoic acid] | 197.6 to 199.5 °C | 27.9 ± 5.81% | 89998.6 ± 7257.5 RFU |  |  |  |
| O=C(O)C[C@H](NC(=O)OCC1c2ccccc2-c2ccccc21)C(=O)NCCO [Compound 5, (S)-3-((((9H-fluoren-9-yl)methoxy)carbonyl)amino)-4-((2-hydroxyethyl)amino)-4-oxobutanoic acid] | 113.6 to 115.1 °C | 24 ± 15.4% | 94919.5 ± 19273.7 RFU |  |  |  |
| Cc1cc(=O)n2c(CN[C@@H](CC(=O)O)C(=O)O)csc2n1 [Compound 33, ((7-methyl-5-oxo-5H-thiazolo [3,2-a]pyrimidin-3-yl)methyl)-L-aspartic acid] |  | 6.39 ± 7.06% | 116893.2 ± 8812.8 RFU |  |  |  |
| CCNC(=O)C[C@H](N)C(=O)O [Compound 4d, N^4-ethyl-L-asparagine] |  | 33.1 ± 19% |  |  |  |  |
| NC(=O)C[C@H](N)C(=O)N[C@@H](CC(=O)O)C(=O)O [Compound 8b, L-asparaginyl-L-aspartic acid] (H-Asn-Asp-OH) | 195.3 to 198.6 °C | 23.8 ± 4.57% | 95132.4 ± 5710.5 RFU |  |  |  |
| Cc1cc(=O)n2c(COC(=O)C[C@H](N)C(=O)O)csc2n1 [Compound 31, (S)-2-amino-4-((7-methyl-5-oxo-5H-thiazolo [3,2-a]pyrimidin-3-yl)methoxy)-4-oxobutanoic acid] |  | 14.6 ± 3.11% | 106608.6 ± 3888.3 RFU |  |  |  |
| Cc1cc(=O)n2c(CNc3ccccn3)csc2n1 [Compound 32a, 7-methyl-3-((pyridin-2-ylamino)methyl)-5H-thiazolo [3,2-a]pyrimidin-5-one] |  | 47.7 ± 4.81% | 65321.0 ± 6005.7 RFU |  |  |  |
| COC(=O)[C@H]1C[C@H](Oc2cc(C)nn3c(-c4ccc(OC)c(OC)c4)cnc23)CN1 [Compound 43, Methyl (2R,4S)-4-((3-(3,4-dimethoxyphenyl)-6-methylimidazo [1,2-b]pyridazin-8-yl)oxy)pyrrolidine-2-carboxylate] | 127.2 to 129.6 °C | 38.2 ± 3.28% | 77132.5 ± 4101.8 RFU | 1.8 fold |  |  |
| O=C(O[C@@H]1Cc2c(O)cc(O)cc2O[C@@H]1c1cc(O)c(O)c(O)c1)c1cc(O)c(O)c(O)c1 [EGCG, epigallocatechin gallate, reference compound] |  |  | 79340.1 ± 5808.7 RFU |  | 36.46 ± 4.64% |  |
| Cc1cc(=O)n2c(CNC(=O)[C@H](N)CCO)csc2n1 [Compound 29, (R)-2-amino-4-hydroxy-N-((7-methyl-5-oxo-5H-thiazolo [3,2-a]pyrimidin-3-yl)methyl)butanamide] |  | 33.2 ± 33.3% | 83406.5 ± 41616.9 RFU |  |  |  |
| Cn1cc(O)c(=O)cc1CC(N)C(=O)O (stereo not drawn) [Compound 20b, 2-amino-3-(5-hydroxy-1-methyl-4-oxo-1,4-dihydropyridin-2-yl)propanoic acid] |  | 24 ± 6.38% | 94881.8 ± 7963.9 RFU |  |  |  |
| N[C@@H](CC(=O)O)C(=O)OCc1ccc([N+](=O)[O-])cc1 [Compound 11f, (S)-3-amino-4-((4-nitrobenzyl)oxy)-4-oxobutanoic acid] | 190.6 to 192.1 °C | 20.6 ± 14.3% | 99123.6 ± 17860.3 RFU |  |  |  |
| N[C@@H](CC(=O)Nc1nc(CO)cs1)C(=O)O [Compound 4a, N^4-(4-(hydroxymethyl)thiazol-2-yl)-L-asparagine] | 257.8 to 259.4 °C | 14.9 ± 8.45% | 106237.2 ± 10544.5 RFU |  |  |  |
| Cc1ccc(COC(=O)C[C@H](N)C(=O)O)cc1 [Compound 11a, (S)-2-amino-4-((4-methylbenzyl)oxy)-4-oxobutanoic acid] | 228.1 to 229.6 °C | 11.4 ± 18.5% | 110620.0 ± 23148.4 RFU |  |  |  |
| Cc1oc(COC(=O)C[C@H](N)C(=O)O)cc(=O)c1O [Compound 23b, (S)-2-amino-4-((5-hydroxy-6-methyl-4-oxo-4H-pyran-2-yl)methoxy)-4-oxobutanoic acid] |  | 34.6 ± 1.75% | 81660.6 ± 2179.5 RFU |  |  |  |
| CNC(=O)C[C@H](N)C(=O)O [Compound 4c, N^4-methyl-L-asparagine] |  | 35.5 ± 18.1% | 80485.7 ± 22615.1 RFU |  |  |  |
| N[C@@H](CC(=O)O)C(=O)O [L-Asp, L-aspartic acid, reference compound] |  | 11.3 ± 0.35% | 110724.3 ± 444.6 RFU |  |  | moderate inhibition |
| N[C@@H](CC(=O)OCc1ccc(F)cc1)C(=O)O [Compound 11b, (S)-2-amino-4-((4-fluorobenzyl)oxy)-4-oxobutanoic acid] | 227.6 to 230.2 °C | < 0% | 130725.3 ± 8310.2 RFU |  |  |  |
| Cc1ccc(COC(=O)[C@@H](N)CC(=O)O)cc1 [Compound 11d, (S)-3-amino-4-((4-methylbenzyl)oxy)-4-oxobutanoic acid] | 205.1 to 207.3 °C | 19.9 ± 4.99% | 100087.5 ± 6229.2 RFU |  |  |  |
| Cc1cc(=O)n2c(CC(=O)N[C@H]3CCOC3=O)csc2n1 [Compound 34a, (S)-2-(7-methyl-5-oxo-5H-thiazolo [3,2-a]pyrimidin-3-yl)-N-(2-oxotetrahydrofuran-3-yl)acetamide] |  | 15.5 ± 16.6% | 105579.0 ± 20740.0 RFU |  |  |  |
| NC(Cc1cc(=O)c(O)co1)C(=O)O (stereo not drawn) [Compound 20a, 2-amino-3-(5-hydroxy-4-oxo-4H-pyran-2-yl)propanoic acid] | 217.1 to 219.8 °C | 17.9 ± 10.1% | 102508.7 ± 12580.9 RFU |  |  |  |
| CN[C@@H](CCC(=O)O)C(=O)O [Compound 1, Methyl-L-glutamic acid] | 156.1 to 157.5 °C | < 0% | 143674.9 ± 32109.7 RFU |  |  |  |
| N[C@@H](CC(=O)O)C(=O)NCCO [Compound 6, (S)-3-amino-4-((2-hydroxyethyl)amino)-4-oxobutanoic acid] |  | < 0% | 128613.0 ± 57574.1 RFU |  |  |  |
